In patent publication US6830894B1, “Compounds and methods for modulating claudin-mediated functions” (Adherex Technologies, Inc., priority 1998, dated 2004):

Test system: MDCK cell monolayers
Experiment: Electrical resistance across MDCK cell monolayer
Type: cell-based, canine
Description: Yet another assay evaluates the effect of a modulating agent on the electrical resistance across a monolayer of cells. For example, Madin Darby canine kidney (MDCK) cells can be exposed to the modulating agent dissolved in medium (e.g., at a final concentration of 0.5 mg/ml for a period of 24 hours). The effect on electrical resistance can be measured using standard techniques. This assay evaluates the effect of a modulating agent on tight junction formation in epithelial cells. In general, the presence of 500 μg/mL modulating agent should result in a statistically significant decrease in electrical resistance after 24 hours.
Madin Darby canine kidney (MDCK) cells were plated in Millicells (Millipore, Bedford, Mass.), at a density of 300,000 cells per Millicell, and cultured in Dulbecco's Modified Eagle Medium (DMEM; Sigma, St. Louis, Mo.) containing 5% fetal calf serum (Sigma, St. Louis, Mo.) until monolayers formed. Monolayers were exposed to the modulating agent dissolved in medium. The electrical resistance was measured using the EVOM device (World Precision Instruments, Sarasota, Fla.). At the time of measurement, fresh medium, with or without the modulating agent, may be added to the Millicells.

[1] = cultured for 18 hours, peptide at 0.5 mg/ml, relative to medium alone (Control), FIG. 3

Substance	mean electrical resistance across MDCK cell monolayers [1]	mean electrical resistance across MDCK cell monolayers (cultured for 24 hours, peptide at various concentrations, versus medium alone (Control), FIG. 4)
N—Ac-WKIYSYAGDN-NH2 [Peptide 118]	reduced the electrical resistance across the monolayer	reduced the electrical resistance across the monolayer in a dose dependent manner
H-WKIYSYAGDN-NH2 [Peptide 119]	did not change the electrical resistance across the monolayer relative to the control	–
